Laboratory results as given in PubChem BioAssay AID2060486 (Molecular Pharmacology Branch, DTP, NCI, 2025).

Test system: IGROV1 complex spheroids (HUVEC, MSC), viability % test/control
Experiment: Anticancer human tumor IGROV1 cell line growth inhibition [GQUAD];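 note: spheroids exposed to compounds for 7 days before readout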
Details: for IC50: curve of first compound; for viability, T/C: stronger effect = lower value
Description: DNA G-quadruplex Stabilizer Agents in Combinations in Complex Spheroids
A high-throughput screen of multi-cell type tumor spheroids was designed to identify active combinations of DNA G-quadruplex stabilizer agents and targeted small molecules. Complex spheroids include a stromal component modeled by human endothelial cells (HUVEC) and fibroblasts modeled by human mesenchymal stem cells (MSCs). The concentration ranges selected for each drug and investigational agent were based upon clinically achievable concentrations if the clinical Cmax of the agent was known.
Compounds. The drugs and investigational agents: pidnarulex (CX-5461; NSC782164), APTO-253 (NSC789042), BRACO-19 (NSC847499), peposertib (NSC802822), ceralasertib (NSC780249), elimusertib (NSC800525), camonsertib (NSC841442), AZD-1390 (NSC803789), olaparib (NSC753686), talazoparib (NSC767125), ART-558 (NSC835418), sotorasib (NSC818433), MRTX-1133 (NSC836407), SN-38 (NSC673596), topotecan (NSC609699), etoposide (NSC141540), doxorubicin (NSC123127), gemcitabine (NSC613327), 5-fluorouracil (NSC19893), paclitaxel (NSC125973), vemurafenib (NSC761431), panobinostat (NSC761190), R-306465 (JNJ-16241199; NSC773264), adavosertib (NSC754352), TP-3654 (NSC805149), carboplatin (NSC241240), KSQ-4279 (NSC840948), and staurosporine (NSC755774) were obtained from the National Cancer Institute (NCI) Developmental Therapeutics Program Chemical Repository (34). The FDA-approved anticancer drug set is available from the NCI Developmental Therapeutics Program. […] The stock solutions were prepared in dimethyl sulfoxide (DMSO, Sigma-Aldrich, St. Louis, MO, cat. D2650) at 800-fold the tested concentration and stored at -70 degrees C prior to their use. All drugs and investigational agents were tested over a range starting from a high concentration at or near the clinical Cmax and decreasing in half-log increments. If the clinical Cmax for an agent had not been determined, the highest concentration tested was 10 microM.
2.3 Cell Culture. All cells were maintained in an incubator at 37 degrees C and 5% CO2 with 95% humidity. The PDC lines were cultured according to standard operating procedures established by the NCI PDMR. All PDCs were thawed and cultured in Matrigel-coated flasks prepared with a working solution of 1X Ham's F-12 nutrient mix, without supplementation (Invitrogen, cat. 11765054), 100 U/mL penicillin-streptomycin (Invitrogen, cat. 15140122), and 2.5% Matrigel (Corning Inc., cat. 354248) for the first three passages. The 857933-349-R-J2-PDC line was cultured in 6C/Colon 1B media, which includes advanced DMEM/F-12 (Thermo Fisher Scientific, cat. 12634028), 10 mM HEPES (Thermo Fisher Scientific, cat. 15630080), 1X GlutaMAX supplement (Thermo Fisher Scientific, cat. 35050061), 0.1 mg/mL primocin (InvivoGen, cat. ant-pm-2), 10% defined fetal bovine serum, heat inactivated (HyClone Laboratories Inc., cat. SH30070.03HI), 50% L-WRN conditioned media (ATCC, cat. CRL-3276), 1.25 mM N-Acetyl-L-cysteine (Sigma-Aldrich, cat. A9165), 10 mM nicotinamide (Sigma-Aldrich, cat. N0636), 1X B-27 supplement (Thermo Fisher Scientific, cat. 17504044), 1X N-2 supplement (Thermo Fisher Scientific, cat. 17502048), 10 microM Y-27632 dihydrochloride (Tocris Bioscience, cat. 1254), and 50 ng/mL human EGF recombinant protein (Thermo Fisher Scientific, cat. PHG0311). The 485176-168-R4-J1-PDC line was cultured in Panc media, which includes all 6C/Colon 1B media components plus 100 ng/mL human FGF-10 (Thermo Fisher Scientific, cat. 100-26), 500 nM SB-431542 (Selleckchem, cat. S1067), and gastrin (Tocris, cat. 3006).
[…]

[1] = second compound 0.0316 µM, first compound 0.0316 µM
[2] = second compound 0.0316 µM, first compound 0.1 µM
[3] = second compound 0.0316 µM, first compound 0.316 µM
[4] = second compound 0.0316 µM, first compound 1 µM
[5] = second compound 0.0316 µM, first compound 3.16 µM
[6] = second compound 0.0316 µM, first compound 10 µM
[7] = second compound 0.1 µM, first compound 0.0316 µM
[8] = second compound 0.1 µM, first compound 0.1 µM
[9] = second compound 0.1 µM, first compound 0.316 µM
[10] = second compound 0.1 µM, first compound 1 µM
[11] = second compound 0.1 µM, first compound 3.16 µM
[12] = second compound 0.1 µM, first compound 10 µM
[13] = second compound 0.316 µM, first compound 0.0316 µM
[14] = second compound 0.316 µM, first compound 0.1 µM
[15] = second compound 0.316 µM, first compound 0.316 µM
[16] = second compound 0.316 µM, first compound 1 µM
[17] = second compound 0.316 µM, first compound 3.16 µM
[18] = second compound 0.316 µM, first compound 10 µM
[19] = second compound 1 µM, first compound 0.0316 µM
[20] = second compound 1 µM, first compound 0.1 µM
[21] = second compound 1 µM, first compound 0.316 µM
[22] = second compound 1 µM, first compound 1 µM
[23] = second compound 1 µM, first compound 3.16 µM
[24] = second compound 1 µM, first compound 10 µM
[25] = second compound 3.16 µM, first compound 0.0316 µM
[26] = second compound 3.16 µM, first compound 0.1 µM
[27] = second compound 3.16 µM, first compound 0.316 µM
[28] = second compound 3.16 µM, first compound 1 µM
[29] = second compound 3.16 µM, first compound 3.16 µM
[30] = second compound 3.16 µM, first compound 10 µM
[31] = second compound 10 µM, first compound 0.0316 µM
[32] = second compound 10 µM, first compound 0.1 µM
[33] = second compound 10 µM, first compound 0.316 µM
[34] = second compound 10 µM, first compound 1 µM
[35] = second compound 10 µM, first compound 3.16 µM
[36] = second compound 10 µM, first compound 10 µM

CC1COCCN1c1cc(C2(O)CC3CCC(C2)O3)c2cnn(-c3ccn[nH]3)c2n1 (stereo unspecified) + CN(C)c1ccc(Nc2c3ccc(NC(=O)CCN4CCCC4)cc3nc3cc(NC(=O)CCN4CCCC4)ccc23)cc1
IC50 (second compound 0.0316 µM): 36.8 nM
IC50 (second compound 0.1 µM): < 31.6 nM
IC50 (second compound 0.316 µM): < 31.6 nM
IC50 (second compound 1 µM): < 31.6 nM
IC50 (second compound 3.16 µM): < 31.6 nM
IC50 (second compound 10 µM): < 31.6 nM
viability, T/C [1]: 54.8%
viability, T/C [2]: 20%
viability, T/C [3]: 7.64%
viability, T/C [4]: 5.68%
viability, T/C [5]: 2.88%
viability, T/C [6]: 1.63%
viability, T/C [7]: 45%
viability, T/C [8]: 22.7%
viability, T/C [9]: 9.08%
viability, T/C [10]: 5.11%
viability, T/C [11]: 3.48%
viability, T/C [12]: 1.19%
viability, T/C [13]: 45.8%
viability, T/C [14]: 19%
viability, T/C [15]: 9.25%
viability, T/C [16]: 4.51%
viability, T/C [17]: 4.65%
viability, T/C [18]: 1.93%
viability, T/C [19]: 42.6%
viability, T/C [20]: 17.5%
viability, T/C [21]: 8.86%
viability, T/C [22]: 5.16%
viability, T/C [23]: 4.18%
viability, T/C [24]: 1.58%
viability, T/C [25]: 38.7%
viability, T/C [26]: 13.4%
viability, T/C [27]: 8.17%
viability, T/C [28]: 4.73%
viability, T/C [29]: 4%
viability, T/C [30]: 1.78%
viability, T/C [31]: 17%
viability, T/C [32]: 10.2%
viability, T/C [33]: 5.93%
viability, T/C [34]: 4.42%
viability, T/C [35]: 3.55%
viability, T/C [36]: 1.05%

CC1COCCN1c1cc(C2(S(C)(=N)=O)CC2)nc(-c2ccnc3[nH]ccc23)n1 (stereo unspecified) + CN(C)c1ccc(Nc2c3ccc(NC(=O)CCN4CCCC4)cc3nc3cc(NC(=O)CCN4CCCC4)ccc23)cc1
IC50 (second compound 0.0316 µM): 1020 nM
IC50 (second compound 0.1 µM): 949 nM
IC50 (second compound 0.316 µM): 979 nM
IC50 (second compound 1 µM): 1020 nM
IC50 (second compound 3.16 µM): 1030 nM
IC50 (second compound 10 µM): 141 nM
viability, T/C [1]: 83.5%
viability, T/C [2]: 76.6%
viability, T/C [3]: 86.7%
viability, T/C [4]: 49.9%
viability, T/C [5]: 16.1%
viability, T/C [6]: 7.65%
viability, T/C [7]: 99.2%
viability, T/C [8]: 89.5%
viability, T/C [9]: 76.3%
viability, T/C [10]: 52.7%
viability, T/C [11]: 14%
viability, T/C [12]: 5.88%
viability, T/C [13]: 83.7%
viability, T/C [14]: 103%
viability, T/C [15]: 76.8%
viability, T/C [16]: 51.4%
viability, T/C [17]: 13.7%
viability, T/C [18]: 6.28%
viability, T/C [19]: 72.4%
viability, T/C [20]: 93%
viability, T/C [21]: 69.8%
viability, T/C [22]: 52.5%
viability, T/C [23]: 12.1%
viability, T/C [24]: 6.36%
viability, T/C [25]: 65.5%
viability, T/C [26]: 84%
viability, T/C [27]: 79.7%
viability, T/C [28]: 49.4%
viability, T/C [29]: 16.5%
viability, T/C [30]: 6.55%
viability, T/C [31]: 60.6%
viability, T/C [32]: 54.4%
viability, T/C [33]: 40.4%
viability, T/C [34]: 30.5%
viability, T/C [35]: 15.2%
viability, T/C [36]: 7.14%

COc1ccc([C@@H](O)c2cc(-c3ncnc4cc(N5CCOCC5)ccc34)c(F)cc2Cl)nn1 + CN(C)c1ccc(Nc2c3ccc(NC(=O)CCN4CCCC4)cc3nc3cc(NC(=O)CCN4CCCC4)ccc23)cc1
IC50 (second compound 0.0316 µM): 1420 nM
IC50 (second compound 0.1 µM): 709 nM
IC50 (second compound 0.316 µM): 718 nM
IC50 (second compound 1 µM): 659 nM
IC50 (second compound 3.16 µM): 348 nM
IC50 (second compound 10 µM): 107 nM
viability, T/C [1]: 89.1%
viability, T/C [2]: 89.1%
viability, T/C [3]: 94.4%
viability, T/C [4]: 62%
viability, T/C [5]: 20.7%
viability, T/C [6]: 7.56%
viability, T/C [7]: 88.4%
viability, T/C [8]: 72.3%
viability, T/C [9]: 74%
viability, T/C [10]: 40.1%
viability, T/C [11]: 14.7%
viability, T/C [12]: 6.35%
viability, T/C [13]: 93.1%
viability, T/C [14]: 82.9%
viability, T/C [15]: 71%
viability, T/C [16]: 41.8%
viability, T/C [17]: 17.6%
viability, T/C [18]: 6.18%
viability, T/C [19]: 63.1%
viability, T/C [20]: 82.2%
viability, T/C [21]: 74%
viability, T/C [22]: 37.1%
viability, T/C [23]: 11.4%
viability, T/C [24]: 5.01%
viability, T/C [25]: 69.4%
viability, T/C [26]: 82.5%
viability, T/C [27]: 49.1%
viability, T/C [28]: 21.6%
viability, T/C [29]: 8.01%
viability, T/C [30]: 5.13%
viability, T/C [31]: 56.6%
viability, T/C [32]: 52.6%
viability, T/C [33]: 30.4%
viability, T/C [34]: 13.7%
viability, T/C [35]: 5.94%
viability, T/C [36]: 4.92%
